In one assay the target is T1, PTPN2 (i.e., TC-PTP) (Homo sapiens, UniProt P17706).
T1 sequence (P17706 1-415): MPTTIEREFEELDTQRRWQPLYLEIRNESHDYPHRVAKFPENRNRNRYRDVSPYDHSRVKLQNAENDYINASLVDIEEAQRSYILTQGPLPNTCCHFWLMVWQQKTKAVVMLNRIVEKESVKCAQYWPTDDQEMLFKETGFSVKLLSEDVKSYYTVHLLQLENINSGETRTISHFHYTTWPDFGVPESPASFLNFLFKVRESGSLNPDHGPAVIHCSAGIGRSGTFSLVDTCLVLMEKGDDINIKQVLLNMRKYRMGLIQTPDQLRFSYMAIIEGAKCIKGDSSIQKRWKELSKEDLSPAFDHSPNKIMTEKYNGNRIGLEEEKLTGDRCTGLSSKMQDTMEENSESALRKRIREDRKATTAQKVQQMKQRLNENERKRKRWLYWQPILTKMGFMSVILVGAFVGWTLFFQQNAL
The experiment in a line: Phosphatase activity assay (DiFMUP substrate), PTPN2. In kind it is biochemical. Particulars: compounds binned ≤1 uM or >1 uM. Put shortly:
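Continuous fluorogenic readout of DiFMUP dephosphorylation at room temperature, substrate set at Km for each phosphatase (about 45 μM in the PTPN2 assay). The buffer contains 1 mM DTT and 0.001% Tween-20, pH 7.5.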

For another assay, the target named is T2, PTPN1 (i.e., PTP1B) (Homo sapiens, UniProt P18031).
T2 sequence (P18031 1-435): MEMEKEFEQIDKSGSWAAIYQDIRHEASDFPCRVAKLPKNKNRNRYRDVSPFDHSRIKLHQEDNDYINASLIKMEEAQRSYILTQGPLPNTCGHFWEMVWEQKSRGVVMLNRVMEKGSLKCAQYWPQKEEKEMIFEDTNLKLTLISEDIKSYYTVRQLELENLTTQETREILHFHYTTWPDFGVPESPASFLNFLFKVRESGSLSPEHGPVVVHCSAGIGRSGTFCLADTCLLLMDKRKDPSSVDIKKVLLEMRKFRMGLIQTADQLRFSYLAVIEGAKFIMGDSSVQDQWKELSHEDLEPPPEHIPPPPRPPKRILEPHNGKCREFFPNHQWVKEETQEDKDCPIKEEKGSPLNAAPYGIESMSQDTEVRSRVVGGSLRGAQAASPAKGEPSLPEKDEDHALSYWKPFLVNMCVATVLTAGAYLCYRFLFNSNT
The experiment in a line: Phosphatase activity assay (DiFMUP substrate), PTP1B. The format is biochemical. Particulars: compounds binned ≤1 uM or >1 uM. Put shortly: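 Read-out is continuous fluorescence of DiFMU (360 nm excitation, 450 nm emission) over about 15-30 minutes, with DiFMUP substrate at the enzyme's independently determined Km (PTPN2 approx. 45 μM final). Buffer: 50 mM HEPES pH 7.5, 150 mM NaCl, 0.5 mM EDTA, 1 mM DTT, 0.001% Tween-20, room temperature; initial rates versus 10-point dilution fitted for IC50, at least duplicate.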

`O=C1CN(c2c(O)ccc(-c3ccnc(N4CCCC4)c3)c2F)S(=O)(=O)N1` [Compound 162, 5-(2-fluoro-6-hydroxy-3-(2-(pyrrolidin-1-yl)pyridin-4-yl)phenyl)-1,2,5-thiadiazolidin-3-one 1,1-dioxide]: the IC50 at PTPN2 (i.e., TC-PTP) was no more than 1000 nM; on PTPN1 (i.e., PTP1B), no more than 1000 nM.

As for `O=C1CN(c2c(O)ccc(-c3cnn(C4CCC(O)CC4)c3)c2F)S(=O)(=O)N1` (centres unmarked) [Compound 408, 5-(2-fluoro-6-hydroxy-3-(1-(4-hydroxycyclohexyl)-1H-pyrazol-4-yl)phenyl)-1,2,5-thiadiazolidin-3-one 1,1-dioxide], the IC50 is no more than 1000 nM at PTPN2 (i.e., TC-PTP) and no more than 1000 nM on PTPN1 (i.e., PTP1B).

On to `O=C1CN(c2c(O)ccc(-c3c[nH]c(C4CC4)c3)c2F)S(=O)(=O)N1` [Compound 394, 5-(3-(5-cyclopropyl-1H-pyrrol-3-yl)-2-fluoro-6-hydroxyphenyl)-1,2,5-thiadiazolidin-3-one 1,1-dioxide], for which the IC50 on PTPN2 (i.e., TC-PTP) is no more than 1000 nM; at PTPN1 (i.e., PTP1B) it was no more than 1000 nM.

`O=C1CN(c2c(O)ccc(C3=CCNC3)c2F)S(=O)(=O)N1` [Compound 489, 5-(3-(2,5-dihydro-1H-pyrrol-3-yl)-2-fluoro-6-hydroxyphenyl)-1,2,5-thiadiazolidin-3-one 1,1-dioxide]: the IC50 was no more than 1000 nM on PTPN2 (i.e., TC-PTP) and no more than 1000 nM on PTPN1 (i.e., PTP1B).

As for `O=C1CN(c2c(O)ccc(-c3cc(C4CCOCC4)n[nH]3)c2F)S(=O)(=O)N1` [Compound 420, 5-(2-fluoro-6-hydroxy-3-(3-(tetrahydro-2H-pyran-4-yl)-1H-pyrazol-5-yl)phenyl)-1,2,5-thiadiazolidin-3-one 1,1-dioxide], the IC50 at PTPN2 (i.e., TC-PTP) was no more than 1000 nM; on PTPN1 (i.e., PTP1B), no more than 1000 nM.

Consider `CC1(N)CCN(c2cc(-c3ccc(O)c(N4CC(=O)NS4(=O)=O)c3F)[nH]n2)C1` (centres unmarked) [Compound 279, 5-(3-(3-(3-amino-3-methylpyrrolidin-1-yl)-1H-pyrazol-5-yl)-2-fluoro-6-hydroxyphenyl)-1,2,5-thiadiazolidin-3-one 1,1-dioxide], for which the IC50 at PTPN2 (i.e., TC-PTP) was no more than 1000 nM; on PTPN1 (i.e., PTP1B) it was no more than 1000 nM.

`O=C1C=C(c2c(O)ccc(-c3cn(C4CC4)cn3)c2F)S(=O)(=O)N1` [Compound 244, 5-(3-(1-cyclopropyl-1H-imidazol-4-yl)-2-fluoro-6-hydroxyphenyl)isothiazol-3(2H)-one 1,1-dioxide]: the IC50 on PTPN2 (i.e., TC-PTP) was no more than 1000 nM; at PTPN1 (i.e., PTP1B) it was no more than 1000 nM.

Turning to `CC(C)CCc1cc(-c2ccc(O)c(N3CC(=O)NS3(=O)=O)c2F)[nH]n1` [Compound 389, 5-(2-fluoro-6-hydroxy-3-(3-isopentyl-1H-pyrazol-5-yl)phenyl)-1,2,5-thiadiazolidin-3-one 1,1-dioxide], the IC50 was no more than 1000 nM on PTPN2 (i.e., TC-PTP) and no more than 1000 nM on PTPN1 (i.e., PTP1B).

Consider `O=C1CN(c2c(O)ccc(-c3cc(N4CCC5(CCN5)C4)n[nH]3)c2F)S(=O)(=O)N1` (centres unmarked) [Compound 396, 5-(3-(3-(1,6-diazaspiro[3.4]octan-6-yl)-1H-pyrazol-5-yl)-2-fluoro-6-hydroxyphenyl)-1,2,5-thiadiazolidin-3-one 1,1-dioxide], for which the IC50 on PTPN2 (i.e., TC-PTP) is no more than 1000 nM; at PTPN1 (i.e., PTP1B) it was no more than 1000 nM.

On to `O=C1CN(c2c(O)ccc(-c3cnn(C4CC5CCC(C4)O5)c3)c2F)S(=O)(=O)N1` (centres unmarked) [Compound 465, 5-(3-(1-(8-oxabicyclo[3.2.1]octan-3-yl)-1H-pyrazol-4-yl)-2-fluoro-6-hydroxyphenyl)-1,2,5-thiadiazolidin-3-one 1,1-dioxide], for which the 50% inhibitory concentration (IC50) at PTPN2 (i.e., TC-PTP) is no more than 1000 nM; at PTPN1 (i.e., PTP1B), no more than 1000 nM.

With `CC(C)Cn1cc(-c2ccc(O)c(N3CC(=O)NS3(=O)=O)c2F)cn1` [Compound 149, 5-(2-fluoro-6-hydroxy-3-(1-isobutyl-1H-pyrazol-4-yl)phenyl)-1,2,5-thiadiazolidin-3-one 1,1-dioxide], the IC50 was no more than 1000 nM on PTPN2 (i.e., TC-PTP) and no more than 1000 nM at PTPN1 (i.e., PTP1B).

Consider `O=C1CN(c2c(O)ccc(-c3cn[nH]c3)c2F)S(=O)(=O)N1` [Compound 477, 5-(2-fluoro-6-hydroxy-3-(1H-pyrazol-4-yl)phenyl)-1,2,5-thiadiazolidin-3-one 1,1-dioxide], for which the 50% inhibitory concentration (IC50) on PTPN2 (i.e., TC-PTP) was no more than 1000 nM; on PTPN1 (i.e., PTP1B), no more than 1000 nM.

Consider `O=C1CN(c2c(O)ccc(-c3cc(C4CCOC4)n[nH]3)c2F)S(=O)(=O)N1` (centres unmarked) [Compound 326, 5-(2-fluoro-6-hydroxy-3-(3-(tetrahydrofuran-3-yl)-1H-pyrazol-5-yl)phenyl)-1,2,5-thiadiazolidin-3-one 1,1-dioxide], for which the IC50 is no more than 1000 nM on PTPN2 (i.e., TC-PTP) and no more than 1000 nM at PTPN1 (i.e., PTP1B).

Consider `Cn1ccc(-c2ccc(O)c(N3CC(=O)NS3(=O)=O)c2F)c1` [Compound 185, 5-(2-fluoro-6-hydroxy-3-(1-methyl-1H-pyrrol-3-yl)phenyl)-1,2,5-thiadiazolidin-3-one 1,1-dioxide], for which the IC50 at PTPN2 (i.e., TC-PTP) was no more than 1000 nM; at PTPN1 (i.e., PTP1B) it was no more than 1000 nM.

For the compound `O=C1CN(c2c(O)ccc(-c3cnn(C(F)F)c3)c2F)S(=O)(=O)N1` [Compound 273, 5-(3-(1-(difluoromethyl)-1H-pyrazol-4-yl)-2-fluoro-6-hydroxyphenyl)-1,2,5-thiadiazolidin-3-one 1,1-dioxide], the IC50 at PTPN2 (i.e., TC-PTP) is no more than 1000 nM; at PTPN1 (i.e., PTP1B) it was no more than 1000 nM.

Regarding `Cn1cc(-c2ccc(O)c(N3CC(=O)NS3(=O)=O)c2Cl)cn1` [Compound 311, 5-(2-chloro-6-hydroxy-3-(1-methyl-1H-pyrazol-4-yl)phenyl)-1,2,5-thiadiazolidin-3-one 1,1-dioxide], the IC50 at PTPN2 (i.e., TC-PTP) is no more than 1000 nM; at PTPN1 (i.e., PTP1B), no more than 1000 nM.

With `O=C1CN(c2c(O)ccc(-c3cnn(C4CC4)c3)c2F)S(=O)(=O)N1` [Compound 133, 5-(3-(1-cyclopropyl-1H-pyrazol-4-yl)-2-fluoro-6-hydroxyphenyl)-1,2,5-thiadiazolidin-3-one 1,1-dioxide], the 50% inhibitory concentration (IC50) at PTPN2 (i.e., TC-PTP) was no more than 1000 nM; on PTPN1 (i.e., PTP1B) it was no more than 1000 nM.

For the compound `CC(=O)N(C)C1CC=C(c2ccc(O)c(N3CC(=O)NS3(=O)=O)c2F)CC1` (centres unmarked) [Compound 377, N-(3′-(1,1-dioxido-4-oxo-1,2,5-thiadiazolidin-2-yl)-2′-fluoro-4′-hydroxy-2,3,4,5-tetrahydro-[1,1′-biphenyl]-4-yl)-N-methylacetamide], the IC50 was no more than 1000 nM on PTPN2 (i.e., TC-PTP) and no more than 1000 nM at PTPN1 (i.e., PTP1B).

For `COCC1CCCN1c1cc(-c2ccc(O)c(N3CC(=O)NS3(=O)=O)c2F)[nH]n1` (centres unmarked) [Compound 372, 5-(2-fluoro-6-hydroxy-3-(3-(2-(methoxymethyl)pyrrolidin-1-yl)-1H-pyrazol-5-yl)phenyl)-1,2,5-thiadiazolidin-3-one 1,1-dioxide], the IC50 was no more than 1000 nM at PTPN2 (i.e., TC-PTP) and no more than 1000 nM on PTPN1 (i.e., PTP1B).

Regarding `Cn1nc(-c2ccc(O)c(N3CC(=O)NS3(=O)=O)c2F)cc1C1CC1(F)F` (centres unmarked) [Compound 319, 5-(3-(5-(2,2-difluorocyclopropyl)-1-methyl-1H-pyrazol-3-yl)-2-fluoro-6-hydroxyphenyl)-1,2,5-thiadiazolidin-3-one 1,1-dioxide], the IC50 at PTPN2 (i.e., TC-PTP) is no more than 1000 nM; on PTPN1 (i.e., PTP1B), no more than 1000 nM.

In the case of `O=C1CN(c2c(O)ccc(-c3c(F)ccc4[nH]ncc34)c2F)S(=O)(=O)N1` [Compound 152, 5-(2-fluoro-3-(5-fluoro-1H-indazol-4-yl)-6-hydroxyphenyl)-1,2,5-thiadiazolidin-3-one 1,1-dioxide], the IC50 on PTPN2 (i.e., TC-PTP) was no more than 1000 nM; on PTPN1 (i.e., PTP1B), no more than 1000 nM.

On to `Cc1n[nH]c(-c2ccc(O)c(N3CC(=O)NS3(=O)=O)c2F)c1C` [Compound 375, 5-(3-(3,4-dimethyl-1H-pyrazol-5-yl)-2-fluoro-6-hydroxyphenyl)-1,2,5-thiadiazolidin-3-one 1,1-dioxide], for which the IC50 was no more than 1000 nM at PTPN2 (i.e., TC-PTP) and no more than 1000 nM at PTPN1 (i.e., PTP1B).

For `O=C1CN(c2c(O)ccc(-c3cnn(Cc4ccccc4)c3)c2F)S(=O)(=O)N1` [Compound 212, 5-(3-(1-benzyl-1H-pyrazol-4-yl)-2-fluoro-6-hydroxyphenyl)-1,2,5-thiadiazolidin-3-one 1,1-dioxide], the IC50 is no more than 1000 nM on PTPN2 (i.e., TC-PTP) and no more than 1000 nM at PTPN1 (i.e., PTP1B).

Consider `CC(C)CCN1CC=C(c2ccc(O)c(N3CC(=O)NS3(=O)=O)c2F)C1` [Compound 544, 5-(2-fluoro-6-hydroxy-3-(1-isopentyl-2,5-dihydro-1H-pyrrol-3-yl)phenyl)-1,2,5-thiadiazolidin-3-one 1,1-dioxide], for which the IC50 on PTPN2 (i.e., TC-PTP) was no more than 1000 nM; on PTPN1 (i.e., PTP1B), no more than 1000 nM.

As to `O=C1CN(c2c(O)ccc(C3=CCCNC3)c2F)S(=O)(=O)N1` [Compound 511, 5-(2-fluoro-6-hydroxy-3-(1,2,5,6-tetrahydropyridin-3-yl)phenyl)-1,2,5-thiadiazolidin-3-one 1,1-dioxide], the IC50 was no more than 1000 nM on PTPN2 (i.e., TC-PTP) and no more than 1000 nM on PTPN1 (i.e., PTP1B).

For orientation: IC50 means the concentration at which inhibition is half-maximal.
